In the supplement of paper PMC10307832:

Columns and labels:
Assay in all cases: relative viability (nuclei count vs DMSO), 5 days (fraction); higher = more cells survive
CUDC-101 + Bortezomib = compound: C#Cc1cccc(Nc2ncnc3cc(OC)c(OCCCCCCC(=O)NO)cc23)c1 [CUDC-101] + CC(C)C[C@H](NC(=O)[C@H](Cc1ccccc1)NC(=O)c1cnccn1)B(O)O [Bortezomib] (partner 0.002 µM)
How it was run: (§1)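 Dosing by pin tool came one day after lung cancer cell lines were seeded in 1536-well plates, using either one drug or a fixed anchor-drug dose plus five library-drug doses (not always all listed) in √10 steps. After 5 days, nuclei were counted on 4× images. Relative viability is treated-well nuclei count divided by vehicle-well nuclei count, and values are medians of duplicate plates.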

CUDC-101 + Vorinostat = compound: C#Cc1cccc(Nc2ncnc3cc(OC)c(OCCCCCCC(=O)NO)cc23)c1 [CUDC-101] + O=C(CCCCCCC(=O)Nc1ccccc1)NO [Vorinostat] (partner 1 µM)
How it was run: as §1

[1] = compound: C1=CC=C2C(=C1)N=C(S2)C(C#N)C3=NC(=NC=C3)NCCC4=CN=CC=C4 + CC(C)C[C@H](NC(=O)[C@H](Cc1ccccc1)NC(=O)c1cnccn1)B(O)O [Bortezomib] (partner 0.002 µM)
How it was run: as §1

[2] = compound: C1=CC=C2C(=C1)N=C(S2)C(C#N)C3=NC(=NC=C3)NCCC4=CN=CC=C4 + CS(=O)(=O)N1CCN(Cc2cc3nc(-c4cccc5[nH]ncc45)nc(N4CCOCC4)c3s2)CC1 [Pictilisib] (partner 1 µM)
How it was run: as §1

Cell Line | relative viability (CUDC-101 + Bortezomib; first compound 0.01 µM) | relative viability (CUDC-101 + Bortezomib; first compound 0.03162 µM) | relative viability (CUDC-101 + Bortezomib; first compound 0.1 µM) | relative viability (CUDC-101 + Bortezomib; first compound 0.3162 µM) | relative viability (CUDC-101 + Bortezomib; first compound 1 µM) | relative viability (CUDC-101 + Vorinostat; first compound 0.01 µM) | relative viability (CUDC-101 + Vorinostat; first compound 0.03162 µM) | relative viability (CUDC-101 + Vorinostat; first compound 0.1 µM) | relative viability (CUDC-101 + Vorinostat; first compound 0.3162 µM) | relative viability (CUDC-101 + Vorinostat; first compound 1 µM) | relative viability ([1]; first compound 0.005 µM) | relative viability ([1]; first compound 0.01581 µM) | relative viability ([1]; first compound 0.05 µM) | relative viability ([1]; first compound 0.1581 µM) | relative viability ([1]; first compound 0.5 µM) | relative viability ([2]; first compound 0.005 µM) | relative viability ([2]; first compound 0.01581 µM) | relative viability ([2]; first compound 0.05 µM) | relative viability ([2]; first compound 0.1581 µM) | relative viability ([2]; first compound 0.5 µM)
NCI-H2228 | 1.11 | 1.2 | 1.18 | 0.97 | 0.279 | 0.611 | 0.575 | 0.585 | 0.783 | 0.526 | 0.828 | 1.09 | 1.16 | 1.1 | 0.997 | 0.341 | 0.283 | 0.37 | 0.307 | 0.402
NCI-H661 | 1.09 | 0.664 | 0.892 | 0.928 | 0.8 | 0.783 | 0.764 | 0.748 | 0.534 | 0.362 | 0.708 | 0.824 | 0.662 | 0.695 | 0.794 | 0.382 | 0.358 | 0.44 | 0.403 | 0.211
EKVX | 0.956 | 1.08 | 1.04 | 0.994 | 0.729 | 0.658 | 0.658 | 0.623 | 0.617 | 0.363 | 0.94 | 1.13 | 1.1 | 1.31 | 0.996 | 0.497 | 0.422 | 0.45 | 0.479 | 0.457
NCI-H1650 | 0.179 | 0.216 | 0.202 | 0.194 | 0.163 | 0.532 | 0.352 | 0.517 | 0.615 | 0.41 | 0.26 | 0.204 | 0.19 | 0.21 | 0.206 | 0.488 | 0.529 | 0.559 | 0.723 | 0.471
HCC-827 | 1.08 | 1.07 | 0.788 | 0.439 | 0.344 | 0.929 | 0.835 | 0.168 | 0.156 | 0.14 | 0.999 | 1.04 | 1.09 | 1.15 | 1.06 | 0.982 | 0.912 | 0.864 | 1.25 | 1.09
NCI-H2009 | 1.01 | 1.04 | 1.05 | 1.04 | 0.889 | 0.766 | 0.639 | 0.764 | 0.705 | 0.506 | 0.936 | 0.906 | 1.03 | 1.08 | 0.993 | 0.853 | 0.644 | 0.845 | 1 | 0.835
NCI-H1437 | 0.547 | 0.483 | 0.398 | 0.693 | 0.284 | 0.864 | 0.857 | 0.814 | 0.808 | 0.495 | 0.475 | 0.569 | 0.848 | 0.652 | 0.429 | 0.474 | 0.39 | 0.398 | 0.539 | 0.361
NCI-H2087 | 0.813 | 0.871 | 0.614 | 0.754 | 0.445 | 0.928 | 0.886 | 0.684 | 0.528 | 0.38 | 0.567 | 0.809 | 0.786 | 0.834 | 0.512 | 0.873 | 0.856 | 0.883 | 1.04 | 0.92
LCLC-103H | 1.17 | 1.03 | 1.01 | 1.14 | 0.68 | 0.759 | 0.81 | 0.7 | 0.692 | 0.61 | 0.96 | 0.984 | 1.07 | 1.23 | 0.91 | 0.493 | 0.446 | 0.498 | 0.707 | 0.681
PC-14 | 1.07 | 0.978 | 0.89 | 0.596 | 0.219 | 0.806 | 0.572 | 0.137 | 0.148 | 0.0543 | 0.665 | 1.12 | 0.9 | 0.965 | 0.679 | – | 0.785 | 0.778 | 0.498 | 0.533
H3255 | 0.743 | 0.736 | 0.32 | 0.541 | 0.186 | 0.824 | 0.786 | – | 1.07 | 0.368 | 0.705 | 0.696 | 0.694 | 0.837 | 0.749 | 0.493 | 0.449 | 0.47 | 0.553 | 0.535
NCI-H460 | 1.13 | 1.04 | 1.09 | 1.11 | 1.18 | 0.679 | 0.73 | 0.695 | 0.597 | 0.409 | – | 1.09 | 1.08 | 1.42 | 0.609 | 0.355 | 0.306 | 0.358 | 0.506 | 0.353
HOP-62 | 0.605 | 0.773 | 1.09 | 0.667 | 0.473 | 0.716 | 0.57 | 0.665 | 0.524 | 0.261 | 0.798 | 0.576 | 0.907 | 1.09 | 0.738 | 0.585 | 0.672 | 0.646 | 0.945 | 0.775
HCC-78 | 0.462 | 0.383 | 0.588 | 0.342 | 0.175 | 0.441 | 0.413 | 0.46 | 0.377 | 0.259 | 0.547 | 0.575 | 0.49 | 0.465 | 0.589 | 0.26 | 0.167 | 0.174 | 0.25 | 0.14
NCI-H2085 | 1.07 | 1.08 | 0.97 | 1.06 | 0.915 | 0.772 | 0.771 | 0.814 | 0.801 | 0.628 | 0.861 | 1.05 | 0.781 | 1.24 | 0.94 | 0.43 | 0.43 | 0.39 | 0.483 | 0.388
COR-L23 | 1.1 | 0.967 | 0.957 | 0.895 | 0.647 | 0.35 | 0.581 | 0.394 | 0.22 | 0.0997 | 0.891 | 1 | 1.08 | 1.16 | 0.925 | 0.531 | 0.792 | 0.725 | 0.952 | 0.762
